{"source": "patent US12491187B2", "about": "“Use of MCT1 inhibitors to enhance insulin sensitivity” (H. LEE MOFFIT CANCER CENTER AND RESEARCH INSTITUTE, INC., priority 2022, dated 2025)", "assay_type_in_all_cases": "cell-based, murine", "key": {"3T3-L1 cells": {"tested_on": "3T3-L1 cells", "assay": "Immunoblotting of adipogenic proteins during differentiation", "settings": "differentiated in the presence of 1 μM AZD3965", "protocol": "Differentiation Protocol: The 3T3-L1 differentiation protocol was adapted from Green and Meuth (1974) (Zebisch, K, et al. Anal. Biochem. 2012 425:88-90; Green, H, et al. Cell 1974 3:127-133). Cells were seeded at approximately 80% confluency and allowed to reach confluency prior to induction of differentiation. 1-2 days post confluency, growth media was changed to ‘day 0’ media consisting of media supplemented with 0.5 mM 1-methyl-3-isobutyl xanthine (IBMX), 1 µM dexamethasone, and 10 μg/mL insulin. On ‘day 3’ media was changed to growth media with 10 μg/mL insulin only, and on ‘day 6’ media was replaced with normal growth media. After day 6, the complete media was refreshed every 2 days. Using Oil Red O staining, RT-qPCR and immunoblotting, it was determined that 3T3-L1 cells were fully differentiated into lipid-laden adipocytes by ‘day 8’ of the protocol, as reported by others (Petersen, C, et al. Sci. Rep. 2017 7:13101; Mangum, L H, et al. Toxicol. Lett. 2015 238:65-71). All differentiation experiments were performed on cells between passage 4 and 6 to ensure differentiation efficiency was consistent.\nImmunoblotting: For the collection of membrane bound proteins (i.e., MCT1), cells were lysed and the membrane fraction of protein was isolated as previously described (Sadler, J B A, et al. Preparation of a total membrane fraction from 3T3-L1 adipocytes (Cold Spring Harb. Protoc. 2016, 2016, pdb-prot083675). Briefly, cells were lysed with ice cold HES buffer (250 mM sucrose, 20 mM HEPES, 1 mM EDTA, pH7.4) containing a cocktail of protease and phosphatase inhibitors (Roche Diagnostic) and centrifuged for 5 min (500 g at 4° C.) to pellet out nuclei. The remaining supernatant (containing cytosolic and membrane bound proteins) was collected. […] For all samples, protein concentration of the lysates was measured using the BCA Protein Assay Kit (Pierce Biotechnologies). […] Bands were quantified using Image Studio™ (LI-COR Biosciences)."}, "[1]": {"tested_on": "differentiated 3T3-L1 (WT) cells", "settings": "mouse", "protocol": "Cell Viability: 3T3-L1 cells were seeded and differentiated in white, clear bottom, 384-well plates (Corning®). Following differentiation, adipocytes were treated for 24, 48 or 72 hr with varying concentrations of AZD3965 ranging from 0.1 nM to 10 µM. Following the indicated incubation period, cells were assayed with CytoTox-Glo™ (Promega®) according the manufacturer's instructions to assess cell toxicity. Briefly, this assay is a luminescent cytotoxicity kit that measures the relative number of dead cells in a population through the addition of a cell impermeant luminogenic substrate which luminesces in the presence of ‘dead-cell protease’, a protein released from membrane-compromised, dead cells. Luminescence was read on a spectrophotometer (FlexStation 3; Molecular Devices). The data generated were normalized by dividing the relative luminescence units (RLU) collected for each experimental condition by the average RLU of ‘basal’ untreated cells considered to be 100% viable."}, "[2]": {"tested_on": "differentiated 3T3-L1 adipocytes", "assay": "Intracellular pyruvate (Amplite fluorimetric assay)", "settings": "1 μM", "protocol": "Intracellular Pyruvate: Intracellular pyruvate was measured using the Amplite™ Fluorimetric Pyruvate Assay Kit (AAT Bioquest) according to the manufacturer's instructions. 3T3-L1 cells were seeded and differentiated in white clear bottom 96-well plates (Corning®). After differentiation, cells were treated with compound or vehicle as indicated. Following 15 min, 30 min, 1 hr, 4 hr, 8 hr or 24 hr incubation with 1 μM AZD6965, media was removed, and cells were lysed with ReadiUse™ mammalian cell lysis buffer (AAT Bioquest). Lysates were then subjected to an enzyme-coupled reaction with the Quest Fluor™ Pyruvate Sensor resulting in an […] detected at 575 nm which is proportional to the quantity of pyruvate within the sample. Absorbance was read on a spectrophotometer (FlexStation 3; Molecular Devices)."}, "3T3-L1-shMCT1 cells": {"tested_on": "3T3-L1-shMCT1 cells", "assay": "Glucose uptake (Glucose Uptake-Glo) in MCT1 knockdown cells", "protocol": "Cell Line Development: Lenti plasmid vectors containing shRNA targeting MCT1 or a shScramble sequence were purchased from Genocopia. Lentiviral particles were produced using HEK293T cells and a third-generation packaging system, MISSION Lentiviral Packaging Mix, as per manufacturer's (Sigma-Aldrich) recommendations. To generate shMCT1 cells, 3T3-L1 cells were seeded and transduced with optimized titers of freshly harvested lentivirus. 12 hr after transduction, medium was changed, and cells were allowed to recover for 24 h before being placed under antibiotic selection (2 μg/mL puromycin [Clontech]) for 3-6 days. Cells surviving antibiotic selection were harvested for both reverse transcription quantitative chain polymerase reaction (RT-qPCR) and immunoblotting analyses.\nGlucose Uptake: 3T3-L1 cells were seeded and differentiated in clear bottom 96-well plates (Corning®). After differentiation, cells were treated with or without […] AZD3965 for 24 hr, 48 hr or 72 hr as illustrated in FIG. 7 (schematic outline of experimental procedure). The cells were incubated in serum free media the night before performing the assay. […] Glucose Uptake was measured using the Glucose Uptake-Glo™ Assay (Promega®) according to the manufacturer's protocol. The data generated were normalized by dividing the relative luminescence units (RLU) measured in insulin stimulated wells by vehicle treated controls. […]"}}}
{"smiles": "Cc1[nH]nc(C(F)(F)F)c1Cc1sc2c(c1C(=O)N1C[C@](C)(O)CO1)c(=O)n(C)c(=O)n2C(C)C", "note": "[AZD3965, 5-[[(4S)-4-hydroxy-4-methyl-2-isoxazolidinyl]carbonyl]-3-methyl-1-(1-methylethyl)-6-[[5-methyl-3-(trifluoromethyl)-1H-pyrazol-4-yl]methyl]-thieno[2,3-d]pyrimidine-2,4 (1H, 3H)-dione]", "values": [{"measurement": "FABP4 protein expression during differentiation", "setting": "3T3-L1 cells", "result": "significantly attenuated"}, {"measurement": "HSL protein expression during differentiation", "setting": "3T3-L1 cells", "result": "significantly attenuated"}, {"measurement": "PPARγ protein expression during differentiation", "setting": "3T3-L1 cells", "result": "significantly attenuated"}, {"measurement": "cytotoxicity / cell viability", "setting": "[1]", "result": "not due to AZD3965-induced cytotoxicity"}, {"measurement": "intracellular pyruvate levels", "setting": "[2]; after 24 hr", "result": "not significantly altered"}, {"measurement": "intracellular pyruvate", "setting": "[2]; first 8 hr of treatment", "result": "significant increase"}, {"measurement": "insulin-stimulated glucose uptake", "setting": "3T3-L1-shMCT1 cells; 1 μM for 72 hr, 175 nM insulin", "result": "do not respond to insulin as robustly as WT 3T3-L1 cells or show any increase"}, {"measurement": "basal, non-insulin stimulated glucose uptake", "setting": "3T3-L1-shMCT1 cells; 1 μM, up to 72 hr", "result": "no significant changes"}]}
